Results as given in patent US10925872B2, “Methods of treating cochlear synaptopathy” (PIPELINE THERAPEUTICS, INC., priority 2016, dated 2021).

What was measured:
inner hair cell synapses = assay: Guinea pig kanamycin-induced cochlear synaptopathy model; format: in vivo, Hartley guinea pigs; conditions: kanamycin 400 mg/kg i.p. 10 days; 30 μl of 2% in vehicle bilateral transtympanic on day 15; three months after
Procedure: Beginning on day 0, male Hartley guinea pigs (450-500 g) were deafened by intraperitoneal administration of kanamycin (400 mg/kg) dosed once daily for 10 consecutive days. […] A loss of synapse density in this model has not been described previously. On day 15, animals received bilateral transtympanic injections of vehicle (30 μl), crystalline Compound I (30 μl of 2% in vehicle), or crystalline Compound II (30 μl of 2% in vehicle). Three months after administration of test article, animals were euthanized and cochleae collected and stained with phalloidin and antibodies against CtBP2 and NF-200. The number of CtBP2+/NF-200+ synapses were quantified and normalized to the number of inner hair cells to obtain synapse density. Synapse density was decreased with kanamycin treatment at 14.7 and 17.3 mm from the apex of the cochlea, which in the guinea pig cochlea, tonally correlates with 16 and 32 kHz, respectively, according to the Greenwood frequency map.
Vehicle (PF10) and GSI in vehicle used in Examples 6 and 7 were prepared as follows: To 129 mL sterile water was added, 0.96 g sodium chloride, 0.59 g sodium phosphate dibasic, and 0.14 g sodium phosphate monobasic. The solution was stirred at ambient temperature and 25.6 g poloxamer 407 was added and stirred overnight to yield a clear solution. […]

[1] = test system: Type I spiral ganglion neurons; assay: Type I spiral ganglion neuron neurite outgrowth with GSIs; format: cell-based, CD-1 mice; conditions: 24-48 h, 0.1% DMSO
Procedure: Mouse spiral ganglion neurons (SGN) were harvested from CD-1 mice (postnatal day 3 to 5), dissociated and cultured on collagen I in serum free media. Cells were treated for 24-48 h with test compound in 0.1% DMSO then immunostained with the neurite marker, Tuj1 and imaged. Neurite length was quantified using ImageJ software (developed by NIH and available publicly). Only Tuj1^+ cells with clear bipolar morphology characteristic of Type I SGNs were quantified. The test compounds were Compound I, Compound II, and RO4929097, as well as the Notch sparing GSI, BMS-708163; NT-3 was included as positive control. […] Moreover, BMS-708163, a Notch-sparing GSI, and Compound I, a Notch inhibiting GSI, both increased type I SGN neurite outgrowth (FIG. 6C).

C[C@H](OC(=O)NCC(F)(F)C(F)(F)F)C(=O)N[C@@H]1C(=O)Nc2ccccc2-c2ccccc21 [Compound I, (2,2,3,3,3-pentafluoropropyl)-carbamic acid (S)-1-((S)-6-oxo-6,7-dihydro-5H-dibenzo[b,d]azepin-7-ylcarbamoyl) ethyl ester]
synapse density (CtBP2+/NF-200+ synapses per inner hair cell) (inner hair cell synapses): increased | lengths of Type I SGN neurites [1]: significant increase
